Measurements published in US6623933B1 (priority 1999, dated 2003).
Where “and” joins values, the source holds several entries; their conditions need not be identical. Equal values may be shown once. Where a name gives a salt, the structure may show the parent alone.

Columns and labels:
[1] = target: T1, NR1/NR2A (Rattus norvegicus, UniProt P35439+Q00959); assay: NMDA-induced membrane currents, Xenopus oocytes, Example 7; type: cell-based
T1 construct: expressed in transfected cells; host or cells: Xenopus oocytes injected with mRNA
Description: (§4) Plasmids were linearized with appropriate restriction enzyme prior to in vitro transcription using the Message Machine kit (Ambion, Inc., Austin, Tex.).
(§5) Oocytes were injected with 50 nL of RNA solutions using an electronic microinjector (Drummond Inc., Broomall, Pa.). […] The injected oocytes were used for experiments following 1-5 days of incubation in Barth's solution at 18-20° C.
(§6) The microelectrodes were fabricated with a programmed puller (Sutter Instrument Co., Calif.) from borosilicate glass capillaries and were filled with 3 M KCl solution. The resistance of filled microelectrodes was in the range of 1-3 MΩ. […] If not mentioned otherwise, during data acquisition oocytes were clamped at a holding potential of −70 mV. The membrane current was filtered at 500 Hz and sampled at 100 Hz. Drugs were applied using a gravity driven external perfusion system. The working ,volume of the recording chamber was 30 μl and the rate of the perfusion was 50 μl/sec. The drug application lasted 10 sec and was followed by a 60 sec wash. The data acquisition and external perfusion control were done using the SuperScopeII software package (GW Instruments, Mass.). […] Peak or steady-state current measurements were normalized and expressed as a fraction of the peak or steady-state control current measurements, which were performed before and after application of every single consentration of agonist or steroid. […]

[2] = target: T2, NR1/NR2C (Rattus norvegicus, UniProt P35439+Q00961); assay: as above; type: cell-based
T2 construct: expressed in transfected cells; host or cells: Xenopus oocytes injected with mRNA
Description: as §4, §5, §6

[3] = target: T3, NR1101/NR2B (Rattus norvegicus, UniProt P35439+Q00960); assay: NMDA receptor currents in Ba-Ringer, Xenopus oocytes, Example 3; type: cell-based
T3 construct: expressed in transfected cells; host or cells: Xenopus oocytes

[4] = target: NR1001/NR2A (Rattus norvegicus, UniProt P35439+Q00959); assay: NMDA-induced currents of NR1 splice variants, Xenopus oocytes, Example 4; type: cell-based; set-up: expressed in transfected cells; host or cells: Xenopus oocytes injected with NR1001 and NR2A mRNA; details: NR1001/2A; 100 μM PS; 200 μM NMDA+10 μM glycine
Description: (§1) Overnight cultures (500 ml) of transformed bacterial cells were prepared in order to grow sufficient quantities for maxiprep isolation of the plasmid CDNA. Maxipreps were done using a Sorvall RC-5B ultracentrifuge, Qiagen columns and cDNA was quantitated with spectrophotometry (OD260 and OD260/ OD280 ratio). The resulting plasmid cDNA was linearized by digestion with an appropriate restriction enzyme that cleaves distal to the cDNA insert (XhoI for NR2A or NotI for NR1100, NR1000, NR1111, NR1011, NR1101, NR1001). […] The samples were stored at −20° C. until use.
(§2) In vitro transcription was performed using the Ambion mMessage mMachine kit with T7 (NR1100, NR1000, NR1111, NR1011, NR1101, NR1001) RNA polymerase. The reaction was assembled on ice and allowed to incubate at 37° C. for 1-2 hr. The resulting mRNA was precipitated (reaction termination) using lithium chloride/5 mM EDTA solution and dissolved in RNase-free H2O. The concentration (OD260) and OD260/OD280 ratio (should be more than 1.5) was determined by spectrophotometer. The yield of mRNA was generally 15-30 μg. mRNA was stored at −80° C. until use.
(§3) Intracellular recording microelectrodes were fabricated from 100 μl borosilicate glass disposable micropipettes using a 2-step protocol on a standard horizontal Flaming-Brown micropipette puller.

[5] = target: NR1000/NR2A (Rattus norvegicus, UniProt P35439+Q00959); assay: as above; type: cell-based; set-up: expressed in transfected cells; host or cells: Xenopus oocytes injected with NR1000 and NR2A mRNA; details: NR1000/2A; 100 μM PS; 200 μM NMDA+10 μM glycine
Description: as §1, §2, §3

[6] = target: NR1100/NR2A (Rattus norvegicus, UniProt P35439+Q00959); assay: as above; type: cell-based; set-up: expressed in transfected cells; host or cells: Xenopus oocytes co-injected with NR1100 and NR2A cRNA; details: NR1100/2A; 100 μM PS; 200 μM NMDA+10 μM glycine
Description: as §1, §2, §3

[7] = target: T4, NR1111/NR2B (Rattus norvegicus, UniProt P35439+Q00960); assay: NMDA receptor currents in Ba-Ringer, Xenopus oocytes, Example 3; type: cell-based
T4 construct: expressed in transfected cells; host or cells: Xenopus oocytes

[8] = target: T5, wild-type NR1a/NR2A (Rattus norvegicus, UniProt P35439+Q00959); assay: NMDA-induced currents, Xenopus oocytes, Example 5; type: cell-based; details: 100 uM steroid, 300 uM NMDA, 50 uM Glycine
T5 construct: expressed in transfected cells; host or cells: Xenopus laevis oocytes injected with in vitro transcribed mRNA
Description: as §4
Female, oocyte positive Xenopus laevis frogs were purchased from Xenopus I (Dexter, Mich). […] Oocytes were injected with 50 nL of RNA solutions using an electronic microinjector (Drummond Inc., Broomall, Pa.). […] The injected oocytes were used for experiments following 1-5 days of incubation in Barth's solution at 18-20° C.
The microelectrodes were fabricated with a programmed puller (Sutter Instrument Co., Calif.) from borosilicate glass capillaries and were filled with 3 M KCl solution. The resistance of filled microelectrodes was in the range of 1-3 MΩ. […] If not mentioned otherwise, during data acquisition oocytes were clamped at a holding potential of −70 mV. The membrane current was filtered at 500 Hz and sampled at 100 Hz. Drugs were applied using a gravity driven external perfusion system. The working ,volume of the recording chamber was 30 μl and the rate of the perfusion was 50 μl/sec. The drug application lasted 10 sec and was followed by a 60 sec wash. The data acquisition and external perfusion control were done using the SuperScopeII software package (GW Instruments, Mass.). All experiments were performed at room temperature (22-24° C.). […] The data are presented as mean±S.E.M. with number of experiments in parentheses.

[9] = test system: NMDA receptor (chick spinal cord neurons); details: Park-Chung et al. 1997; cited from earlier work
[10] = test system: primary cultures of rat hippocampal neurons; assay: NMDA-induced increase in [Ca2+]i, Fluo-3 AM; type: cell-based; details: 5 μM NMDA; steroid 100 μM (3α5β 50 μM)
Description: Principally neuronal cultures were prepared from hippocampal tissue of fetal Sprague-Dawley rats on day 18 of embryonic development, as previously described (Brewer et al., Brain Research 494: 65-74 (1989)). Briefly, hippocampal cells were dissociated by trituration in Ca^2+/Mg^2+-free Hank's basic salt solution (Gibco) supplemented with 4.2 mM bicarbonate, 1 mM sodium pyruvate, 20 mM HEPES, 3 mg/ml bovine serum albumin (BSA). Dissociated cells were then pelleted by centrifugation (500×g, 4 min). […] Cells were then plated onto poly-L-lysine-coated 24-well culture dishes (Nunclon) at a density of 15,000 cell/cm^2 and maintained in a humidified atmosphere containing 5% CO2/95% air at 37° C. After 48 h, nonneuronal cell division was inhibited by a 48 h exposure to 1 μM cytosine arabinoside. Cultures were subsequently maintained in serum-free DMEM plus defined components and were used for experiments 16 to 24 days after plating.
DMSO was also added to controls to maintain a constant final DMSO concentration of […].
All data are expressed as mean±standard error of the mean. Statistical significance was evaluated using 95% confidence limits unless otherwise noted.

[11] = target: NR1/NR2A (NR1100) (Rattus norvegicus, UniProt P35439+Q00959); assay: cell-based
Description: Plasmids containing the NR1100 (NR1G) and NR2A cDNA inserts were kindly provided by Dr. Nakanishi (Kyoto University Faculty of Medicine, Kyoto, Japan). Plasmids containing the NR2B, NR2C and NR2D cDNA inserts were kindly provided by Dr. P. Seeburg (Heidelberg University, Heidelberg, Germany). Plasmids were linearized with appropriate restriction enzyme prior to in vitro transcription using the Message Machine kit (Ambion, Inc., Austin, Tex.).
Female, oocyte-positive Xenopus laevis frogs were purchased from Xenopus I (Dexter, Mich.). […] Oocytes were injected with 50 nL of RNA solutions using an electronic microinjector (Drummond Inc., Broomall, Pa.). […] The injected oocytes were used for experiments following 1-5 days of incubation in Barth's solution at 18-20° C.
The microelectrodes were fabricated from borosilicate glass capillaries with a programmed puller (Sutter Instrument Co., Calif.). Microelectrode resistance was 1-3 MΩ_when filled with 3 M KCl.
Except where otherwise stated, oocytes were clamped at a holding potential of −70 mV during data acquisition. The membrane current was filtered at 500 Hz and sampled at 100 Hz. Drugs were applied using a gravity-driven external perfusion system. The working volume of the recording chamber was 30 μl and the rate of the perfusion was 50 μl/sec. The drug application lasted 10 sec and was followed by 60 s wash. Data acquisition and external perfusion were controlled using custom-written software implemented in the SuperScope II development environment (GW Instruments, Mass.). All experiments were performed at room temperature of 22-24° C. Peak or steady-state current measurements were normalized and expressed as a fraction of the peak or steady-state control current measurements, which were performed before and after application of every single concentration of agonists or steroids.
Concentration-response data were analyzed by nonlinear regress ion using the logistic equation Response=Emax/(1+(EC50/c)^nH), where c is concentration, Emaxis the maximum response, nHis the Hill coefficient. The data are presented as mean±SEM. EC50values are averaged as logarithms (De Lean et al., Am. J. Physiol. 235: E97-E102 (1978))±the SEM of the log EC50. […] The pooled data were simultaneously fitted to the logistic equation, either with Emax and EC50 constrained to be identical in the presence and absence of PS, or allowing one or both to vary independently. […] This was regarded as indicating a significant treatment effect of PS, but the change in EC50and Emaxwas not considered significant. […] No attempt was made to test the generally small changes in nHfor statistical significance.

T3 sequence (Q00960 27-1482, other chains not shown): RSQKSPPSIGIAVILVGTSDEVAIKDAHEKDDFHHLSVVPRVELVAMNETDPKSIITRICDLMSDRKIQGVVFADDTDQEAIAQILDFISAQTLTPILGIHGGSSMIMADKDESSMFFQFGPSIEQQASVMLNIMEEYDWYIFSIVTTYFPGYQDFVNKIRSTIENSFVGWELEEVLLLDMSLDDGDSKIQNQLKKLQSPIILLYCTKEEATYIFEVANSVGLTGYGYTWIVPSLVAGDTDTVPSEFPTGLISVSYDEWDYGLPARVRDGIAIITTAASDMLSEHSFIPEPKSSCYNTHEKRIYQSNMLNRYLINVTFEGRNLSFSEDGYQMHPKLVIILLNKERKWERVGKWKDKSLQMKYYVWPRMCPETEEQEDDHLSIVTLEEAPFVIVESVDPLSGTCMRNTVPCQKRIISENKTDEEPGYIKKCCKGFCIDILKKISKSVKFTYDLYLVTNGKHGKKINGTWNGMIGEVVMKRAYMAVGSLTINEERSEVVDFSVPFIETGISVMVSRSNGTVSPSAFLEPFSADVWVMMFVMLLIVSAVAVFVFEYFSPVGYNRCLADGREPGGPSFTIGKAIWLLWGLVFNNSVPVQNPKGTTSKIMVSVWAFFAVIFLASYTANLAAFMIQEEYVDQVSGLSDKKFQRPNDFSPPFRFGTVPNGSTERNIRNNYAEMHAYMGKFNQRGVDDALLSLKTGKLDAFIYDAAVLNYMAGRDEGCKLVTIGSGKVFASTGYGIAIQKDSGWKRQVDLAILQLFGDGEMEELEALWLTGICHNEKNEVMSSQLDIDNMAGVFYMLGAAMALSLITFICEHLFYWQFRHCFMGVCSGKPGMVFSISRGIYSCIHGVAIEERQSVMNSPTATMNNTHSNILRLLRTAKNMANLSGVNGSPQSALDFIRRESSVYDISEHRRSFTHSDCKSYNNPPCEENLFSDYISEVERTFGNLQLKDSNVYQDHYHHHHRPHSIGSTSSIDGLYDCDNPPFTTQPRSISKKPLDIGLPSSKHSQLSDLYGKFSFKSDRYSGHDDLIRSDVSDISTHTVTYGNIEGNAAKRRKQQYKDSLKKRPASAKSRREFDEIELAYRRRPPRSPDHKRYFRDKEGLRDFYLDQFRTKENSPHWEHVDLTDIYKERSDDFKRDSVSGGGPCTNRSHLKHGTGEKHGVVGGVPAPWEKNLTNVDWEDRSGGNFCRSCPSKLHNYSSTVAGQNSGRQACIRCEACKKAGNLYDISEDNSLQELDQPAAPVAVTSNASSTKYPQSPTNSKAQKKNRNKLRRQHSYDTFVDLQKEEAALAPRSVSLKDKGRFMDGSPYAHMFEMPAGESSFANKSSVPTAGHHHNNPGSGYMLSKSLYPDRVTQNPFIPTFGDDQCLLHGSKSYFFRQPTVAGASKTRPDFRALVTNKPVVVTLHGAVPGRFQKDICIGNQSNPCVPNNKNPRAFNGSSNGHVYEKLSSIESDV
T4 sequence (Q00960 27-1482, other chains not shown): as above
Chain of NR1001/NR2A (Q00959 23-1464, other chains not shown): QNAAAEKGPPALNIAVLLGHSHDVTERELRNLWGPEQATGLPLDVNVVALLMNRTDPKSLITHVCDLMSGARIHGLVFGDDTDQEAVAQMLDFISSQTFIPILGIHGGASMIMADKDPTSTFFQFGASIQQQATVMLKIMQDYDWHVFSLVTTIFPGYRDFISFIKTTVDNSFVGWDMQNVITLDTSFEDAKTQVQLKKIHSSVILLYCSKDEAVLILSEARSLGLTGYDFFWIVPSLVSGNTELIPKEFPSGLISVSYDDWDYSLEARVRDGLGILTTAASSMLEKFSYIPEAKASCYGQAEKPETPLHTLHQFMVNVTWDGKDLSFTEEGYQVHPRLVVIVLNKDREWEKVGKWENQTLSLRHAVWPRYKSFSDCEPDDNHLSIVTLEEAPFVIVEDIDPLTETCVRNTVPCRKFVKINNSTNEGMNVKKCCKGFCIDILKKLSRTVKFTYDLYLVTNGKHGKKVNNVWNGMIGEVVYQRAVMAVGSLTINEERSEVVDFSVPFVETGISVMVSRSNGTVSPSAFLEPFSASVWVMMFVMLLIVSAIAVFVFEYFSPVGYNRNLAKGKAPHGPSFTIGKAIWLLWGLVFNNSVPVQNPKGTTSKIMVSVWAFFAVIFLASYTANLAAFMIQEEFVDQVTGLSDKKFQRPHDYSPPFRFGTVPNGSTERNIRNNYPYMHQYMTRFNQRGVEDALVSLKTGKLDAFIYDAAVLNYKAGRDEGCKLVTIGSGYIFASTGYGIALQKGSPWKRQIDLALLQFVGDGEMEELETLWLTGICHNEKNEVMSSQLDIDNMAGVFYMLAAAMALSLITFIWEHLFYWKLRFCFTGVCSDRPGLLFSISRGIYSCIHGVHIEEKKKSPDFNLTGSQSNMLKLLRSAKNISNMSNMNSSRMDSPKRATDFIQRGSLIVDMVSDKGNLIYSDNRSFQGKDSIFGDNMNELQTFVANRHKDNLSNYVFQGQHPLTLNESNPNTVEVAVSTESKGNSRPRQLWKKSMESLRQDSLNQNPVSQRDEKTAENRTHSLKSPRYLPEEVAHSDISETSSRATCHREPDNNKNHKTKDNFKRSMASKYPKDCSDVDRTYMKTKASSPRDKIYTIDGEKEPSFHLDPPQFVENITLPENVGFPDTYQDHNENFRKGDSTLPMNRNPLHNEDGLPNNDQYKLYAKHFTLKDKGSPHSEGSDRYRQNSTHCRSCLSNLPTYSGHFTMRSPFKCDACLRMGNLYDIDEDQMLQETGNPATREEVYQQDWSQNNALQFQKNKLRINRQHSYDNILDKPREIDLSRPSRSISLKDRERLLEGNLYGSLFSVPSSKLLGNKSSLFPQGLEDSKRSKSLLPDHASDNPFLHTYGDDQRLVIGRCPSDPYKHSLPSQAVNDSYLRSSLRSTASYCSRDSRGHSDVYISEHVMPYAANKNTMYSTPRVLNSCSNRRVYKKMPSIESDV

## pregnenolone sulfate [PS]
[1]; 100 μM PS, 80 μM NMDA, 10 μM glycine
  potentiation of NMDA responsive membrane current: 59±4%
[1]; PS 0.5 to 200 μM
  maximum potentiation: 67±7%
[2]; 100 μM PS, […] μM NMDA, 10 μM glycine
  inhibition of NMDA-induced membrane currents: 32±3%
[2]; PS 0.5 to 200 μM
  maximum inhibition: 63±9%
[3]
  PS Emax: 1.03 ± 0.02
  PS nHill: 1.63 ± 0.29
[4]
  maximum relative current (MRC): 1.73 and 1.72
[5]
  maximum relative current (MRC): 1.29
[6]
  maximum relative current (MRC): 1.73
[7]
  PS Emax: 1.20 ± 0.10
  PS nHill: 1.52 ± 0.10

## CC(=O)[C@H]1CC[C@H]2[C@@H]3CC[C@@H]4C[C@H](OS(=O)(=O)O)CC[C@]4(C)[C@H]3CC[C@]12C [3α5βS, 3α5β-pregnanolone sulfate]
[8]
  percent decrease in maximum inward current: 45.49±5.76%
[9]
  modulation of NMDA-induced current: strong inhibitors
[10]
  reduction of NMDA-induced rise in [Ca2+]i: 32±5%
[11]
  EC50: 62 µM
[11]; read-out: 3α5βS Emax (% Change)
  Emax: -81 ± 5%
